From article PMC8621605, “Cascade Transformations of 1-R-Ethynyl-9,10-anthraquinones with Amidines: Expanding Access to Isoaporphinoid Alkaloids” (Molecules, 2021)
Values joined by “and” are separate entries in the source; they are usually repeats but may differ in a detail not shown here. Identical values can stand only once. Like-named read-outs stand apart in the source and are kept apart here.

How the values were obtained:
A549 = assay: MTT cytotoxicity assay, A549; type: cell-based; settings: Homo sapiens, 72 h, read-out: IC50 ± SEM, A549
Procedure: (§1) Cell lines were obtained from the American Type Culture Collection: U-87 MG (ATCC number HBT-14), MCF7 (ATCC number HTB-22), A549 (ATCC number CRM-CCL), HeLa (ATCC number CCL-2). Immortalized human fibroblasts hTERT (as noncancerous control) were obtained from ICG SB RAS (Novosibirsk, Russia). DMEM with 10% fetal bovine serum (Gibco, Amarillo, TX, USA) was used for culturing. Optical density was measured on a Multiskan RC spectrophotometer (LabSystems, Vantaa, Finland). The MTT test was carried out according to the standard procedure using the reagent 3-(4,5-dimethylthiazol-2-yl)-2,5-diphen-yltetrazolium bromide (MTT, Sigma). Cells were seeded in 96 well plates at 5000 cells/well and incubated for 24 h at 37 C in 5% CO2. After 24 h, various concentrations of test compounds ([…]) in DMSO were added and the cells were incubated for an additional 72 h. The viability for DMSO (negative control) was calculated as 100%. All culture experiments were carried out independently three times with two repeats in the experiment, and the final result is presented as concentration, which causes 50% inhibition of cell population growth (IC50 ± SEM).

[1] = tested on: Concanavalin A-Induced Inflammation; assay: Concanavalin A-induced mouse paw edema model; type: in vivo, C57BL/6 female mice; settings: for anti-inflammatory effect (in words): 20 mg/kg i.p.; for inhibition in vivo at 20 mg/kg: Mus musculus, ip, anti-inflammatory activity relative to control group, read-out: Concanavalin A-Induced Inflammation AIA, %; for inhibition in vivo at 20 mg/kg / Concanavalin A-Induced Inflammation IEI, %: 20 mg/kg i.p. twice; for Concanavalin A-Induced Inflammation IEI, %: inflammatory edema index, 24 h and 1 h before phlogogen, mean ± SEM; for activity higher than that of indomethacin (reference drug): 20 mg/kg double i.p. administration
Excerpt: (§2) The anti-inflammatory activity of the synthesized compounds was investigated in vivo in comparison with indomethacin on two models of local inflammation induced by histamine or concanavalin A injection. The last one was used as the inductor of allergic-like inflammation, owing to its immunogenic activity. The results were expressed as values of inflammatory edema indexes (IEI) and percentages of anti-inflammatory activity (AIA) relative to the control group (Table 1).
(§3) The pharmacological studies were carried out on outbred albino male mice and C57BL/6 female mice weighing 20–25 g with eight animals in each group. The anti-inflammatory activity of compounds 2–3 was evaluated in the histamine-induced and concanavalin A-induced mouse paw edema models. The test compounds were dissolved in saline containing 0.5% Tween 80 just before intraperitoneal administration at the dose of 20 mg/kg. The reference agent indomethacin (‘Fluka BioChemica’) was administered by the same method and dose. The control group of animals received an equivalent volume of water–Tween mixture.
The 8 female mice C57Bl/6 were subplantar injected into the hind paw with 0.02 mL 0.5% concanavaline A (“Sigma Aldrich”) aqueous solution. The test compounds were administered twice 24 h and 1 h before phlogogen. The animals were sacrificed by cervical dislocation 1 h after the phlogogen injection.
(§4) Both hind paws were cut off at the ankle joint and weighed. The ratio of the difference in weight between the treated and untreated hind paws to the weight of the untreated hind paw was used as an inflammatory edema index (IEI). The relative percentage of IEI versus control IEI (100%) was calculated for each test group. The anti-inflammatory activity (AIA) was presented as a difference between 100% in the control group and relative percentage of IEI in the test group.

U-87 MG = assay: MTT cytotoxicity assay, glioblastoma; type: cell-based, human; settings: for IC50: Homo sapiens, U-87 MG, 72 h, read-out: IC50 ± SEM, U-87 MG
Procedure: (§5) The cytotoxicity study of the quinolinones 2–3 was evaluated in vitro by MTT assay on immortalized humane fibroblasts (hTERT), humane breast cancer cell line (MCF7) and humane glioblastoma cell line (U-87MG and) versus doxorubicin as a reference compound.
as §1

[2] = tested on: Histamine-Induced Inflammation; assay: Histamine-induced mouse paw edema model; type: in vivo, outbred albino male mice; settings: for anti-inflammatory effect (in words) / inhibition in vivo at 20 mg/kg: 20 mg/kg i.p.; for inhibition in vivo at 20 mg/kg: Mus musculus, ip, anti-inflammatory activity relative to control group, read-out: Histamine-Induced Inflammation AIA, %; for Histamine-Induced Inflammation IEI, %: inflammatory edema index, 20 mg/kg i.p. 1 h before histamine, mean ± SEM
Excerpt: as §2, §3
The 8 outbred male albino mice were subplantar injected into the hind paw with 0.05 mL 0.01% histamine (“Sigma Aldrich”, Saint Louis, MO, USA) in water solution. The tested compounds were administered 1 h before the histamine injection. The animals were sacrificed by cervical dislocation 5 h after the phlogogen injection.
as §4

MCF7 = assay: MTT cytotoxicity assay, breast cancer; type: cell-based, human; settings: for IC50: Homo sapiens, MCF7, 72 h, read-out: IC50 ± SEM, MCF7
Procedure: as §5, §1

HeLa = assay: MTT cytotoxicity assay, cervical cancer; type: cell-based; settings: for IC50: 72 h, MTT, read-out: IC50 ± SEM, HeLa; for cytotoxicity lower than doxorubicin: ratio of IC50
Procedure: as §1

hTERT = assay: MTT cytotoxicity assay, immortalized fibroblasts; type: cell-based, human; settings: for IC50: Homo sapiens, Fibroblast, 72 h, read-out: IC50 ± SEM, hTERT
Procedure: as §5, §1

melting point [°C] | SMILES | IC50 (A549) [µM] | anti-inflammatory effect (in words) [1] | inhibition in vivo at 20 mg/kg [1] [%] | Concanavalin A-Induced Inflammation IEI, % [1] [%] | IC50 (U-87 MG) [µM] | anti-inflammatory effect (in words) [2] | inhibition in vivo at 20 mg/kg [2] [%] | Histamine-Induced Inflammation IEI, % [2] [%] | IC50 (MCF7) [µM] | IC50 (HeLa; Homo sapiens, HeLa) [µM] | IC50 (hTERT) [µM] | activity higher than that of indomethacin (reference drug) [1] | cytotoxicity lower than doxorubicin (HeLa; HeLa) [times] | cytotoxic effect on immortal fibroblasts (in words) (hTERT) | antitumor effect on multiform glioblastoma cell culture (in words) (U-87 MG) | antitumor effect on breast cancer cell culture (in words) (MCF7) | IC50 (HeLa) [µM]
312 to 313 | CC(=O)c1ccc(C(=O)c2c(-c3ccccc3)nc3c4c(cccc24)C(=O)c2ccccc2-3)cc1 [2b, 2-benzo-3-(p-acetylbenzoyl)-7H-dibenzo[de,h]quinolin-7-one] | > 100 | most potent effects | 43 | 21.4 ± 1.6 | > 100 | most potent effects | 33 | 23.0 ± 1.9 | > 100 | > 100 | > 100 |  |  |  |  |  | 
279 to 280 | COc1ccc(C(=O)c2c(-c3ccccc3)nc3c4c(cccc24)C(=O)c2ccccc2-3)cc1 [2d, 2-benzo-3-(p-methoxybenzoyl)-7H-dibenzo[de,h]quinolin-7-one] | > 100 | most potent effects | 26 | 27.9 ± 1.2 | > 100 | most potent effects | 34 | 22.7 ± 2.3 | > 100 | > 100 | > 100 |  |  |  |  |  | 
324 to 325 | CC(=O)c1ccc(-c2cc3cccc4c3c(n2)-c2ccccc2C4=O)cc1 [3b, 2-(p-acetylphenyl)-7H-dibenzo[de,h]quinolin-7one] | > 100 | most potent effects | 52 | 18.0 ± 2.0 | > 100 | most potent effects | 36 | 22.1 ± 1.8 | > 100 | > 100 | > 100 |  |  |  |  |  | 
295 to 296 | O=C1c2ccccc2-c2nc(-c3ccc([N+](=O)[O-])cc3)cc3cccc1c23 [3c, 2-(p-nitrophenyl)-7H-dibenzo[de,h]quinolin-7-one] |  |  |  |  |  |  |  |  |  |  |  |  |  |  |  |  | 
203 to 204 | COc1ccc(-c2cc3cccc4c3c(n2)-c2ccccc2C4=O)cc1 [3d, 2-(p-methoxyphenyl)-7H-dibenzo[de,h]quinolin-7-one] | > 100 |  | 60 | 15.2 ± 1.6 | > 100 |  | 42 | 19.9 ± 2.6 | > 100 | > 100 | > 100 | 1.5 times and 1.3–1.4 times |  |  |  |  | 
 | CCCCCc1cc2cccc3c2c(n1)-c1ccccc1C3=O [3h] | > 100 |  | 48 | 19.7 ± 2.3 | > 100 |  | 30 | 23.9 ± 1.7 | > 100 | > 100 | > 100 | 1.3–1.4 times |  |  |  |  | 
 | CN(C)c1ccc(-c2cc3cccc4c3c(n2)-c2ccccc2C4=O)cc1 [3i] | > 100 | most potent effects | 51 | 18.5 ± 1.6 | > 100 | most potent effects | 34 | 22.6 ± 2.3 | > 100 | > 100 | > 100 | 1.3–1.4 times |  |  |  |  | 
 | CC(C)(O)c1cc2cccc3c2c(n1)-c1ccccc1C3=O [3j] | > 100 |  | 41 | 22.1 ± 2.5 | 50.1 ± 5.9 |  | 16 | 28.9 ± 2.0 | 92.9 ± 7.2 | 21.3 ± 5.9 | > 100 |  | 3.5 | did not have a cytotoxic effect | weak antitumor effect | weak antitumor effect | 
 | Cc1c(-c2cc3cccc4c3c(n2)-c2ccccc2C4=O)cnn1C [3k] | > 100 |  | 18 | 31.1 ± 2.4 | > 100 |  | 34 | 22.7 ± 1.7 | > 100 | 21.3 | > 100 |  | 3.5 | did not have a cytotoxic effect |  |  | 22.7 ± 7.3
232.5 to 233.5 | COc1ccc(C(=O)c2c(C)nc3c4c(cccc24)C(=O)c2ccccc2-3)cc1 [4d, 2-methyl-3-(p-methoxybenzoyl)-7H-dibenzo[de,h]quinolin-7-one] |  |  |  |  |  |  |  |  |  |  |  |  |  |  |  |  | 
 | COc1cccc2c1C(=O)c1c(O)c3c(c(O)c1C2=O)C[C@@](O)(C(=O)CO)C[C@@H]3O[C@H]1C[C@H](N)[C@H](O)[C@H](C)O1 [Doxorubicin, doxorubicin, reference compound] | 4.05 ± 0.9 |  |  |  | 2.3 ± 0.6 |  |  |  | 3.6 ± 0.4 | 6 ± 1 | 4.1 ± 1 |  |  |  |  |  | 
 | COc1ccc2c(c1)c(CC(=O)O)c(C)n2C(=O)c1ccc(Cl)cc1 [Indomethacin, indomethacin, reference compound] |  |  | 38 | 23.4 ± 2.2 |  |  | 48 | 17.8 ± 2.7 |  |  |  |  |  |  |  |  | 

SMILES | melting point [°C] | IC50 (A549) [µM] | anti-inflammatory effect (in words) [1] | inhibition in vivo at 20 mg/kg [1] [%] | Concanavalin A-Induced Inflammation IEI, % [1] [%] | IC50 (U-87 MG) [µM] | anti-inflammatory effect (in words) [2] | inhibition in vivo at 20 mg/kg [2] [%] | Histamine-Induced Inflammation IEI, % [2] [%] | IC50 (MCF7) [µM] | IC50 (HeLa; Homo sapiens, HeLa) [µM] | IC50 (hTERT) [µM] | activity higher than that of indomethacin (reference drug) [1] | cytotoxicity lower than doxorubicin (HeLa; HeLa) [times] | cytotoxic effect on immortal fibroblasts (in words) (hTERT) | antitumor effect on multiform glioblastoma cell culture (in words) (U-87 MG) | antitumor effect on breast cancer cell culture (in words) (MCF7) | IC50 (HeLa) [µM]
O=C1c2ccccc2-c2nc(-c3ccccc3)cc3cccc1c23 [3a, 2-phenyl-7H-dibenzo[de,h]quinolin-7-one] | 207 to 208 | > 100 |  | 53 | 17.8 ± 1.8 | > 100 | most potent effect | 60 | 13.9 ± 0.8 | > 100 | 86.3 ± 12.9 | > 100 | 1.3–1.4 times | 14 | did not have a cytotoxic effect |  |  | 
